{"source": "paper PMC6199744", "about": "“Development of Chemical Proteomics for the Folateome and Analysis of the Kinetoplastid Folateome” (ACS Infectious Diseases, 2018)", "type_in_all_cases": "binding", "key": {"[1]": {"biological_target": "T1, HeLa cell extract proteins (Homo sapiens, UniProt Q16891)", "T1 construct": "endogenous in cells; host or cells: HeLa cell extract", "T1 sequence (Q16891 34-758)": "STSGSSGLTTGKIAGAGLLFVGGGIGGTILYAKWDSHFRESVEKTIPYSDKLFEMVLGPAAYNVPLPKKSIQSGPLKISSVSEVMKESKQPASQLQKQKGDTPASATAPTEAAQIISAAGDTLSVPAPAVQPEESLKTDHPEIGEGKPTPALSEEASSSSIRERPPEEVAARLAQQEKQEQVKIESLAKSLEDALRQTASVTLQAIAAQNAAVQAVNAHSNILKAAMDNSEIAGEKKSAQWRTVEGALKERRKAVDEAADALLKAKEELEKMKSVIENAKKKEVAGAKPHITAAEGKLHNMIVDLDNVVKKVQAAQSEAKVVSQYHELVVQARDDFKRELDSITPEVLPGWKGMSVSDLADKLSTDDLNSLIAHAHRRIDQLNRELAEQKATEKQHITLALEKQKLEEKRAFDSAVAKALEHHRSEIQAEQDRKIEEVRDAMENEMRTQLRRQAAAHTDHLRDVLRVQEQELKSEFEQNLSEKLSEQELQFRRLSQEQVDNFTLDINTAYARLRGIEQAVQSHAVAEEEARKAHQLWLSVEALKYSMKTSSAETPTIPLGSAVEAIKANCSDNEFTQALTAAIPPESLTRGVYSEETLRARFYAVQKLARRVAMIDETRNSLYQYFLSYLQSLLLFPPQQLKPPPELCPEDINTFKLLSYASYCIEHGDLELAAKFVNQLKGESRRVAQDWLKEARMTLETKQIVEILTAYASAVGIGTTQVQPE"}, "[2]": {"biological_target": "T2, HeLa cell extract proteins (Homo sapiens, UniProt Q99497)", "T2 construct": "endogenous in cells; host or cells: HeLa cell extract", "T2 sequence (Q99497 1-189)": "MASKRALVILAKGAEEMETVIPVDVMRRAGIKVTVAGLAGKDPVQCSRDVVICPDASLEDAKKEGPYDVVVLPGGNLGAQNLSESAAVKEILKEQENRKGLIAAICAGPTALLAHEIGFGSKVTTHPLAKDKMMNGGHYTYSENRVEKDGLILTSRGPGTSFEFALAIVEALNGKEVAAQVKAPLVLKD"}, "[3]": {"biological_target": "T3, HeLa cell extract proteins (Homo sapiens, UniProt P27824)", "T3 construct": "endogenous in cells; host or cells: HeLa cell extract", "T3 sequence (P27824 21-592)": "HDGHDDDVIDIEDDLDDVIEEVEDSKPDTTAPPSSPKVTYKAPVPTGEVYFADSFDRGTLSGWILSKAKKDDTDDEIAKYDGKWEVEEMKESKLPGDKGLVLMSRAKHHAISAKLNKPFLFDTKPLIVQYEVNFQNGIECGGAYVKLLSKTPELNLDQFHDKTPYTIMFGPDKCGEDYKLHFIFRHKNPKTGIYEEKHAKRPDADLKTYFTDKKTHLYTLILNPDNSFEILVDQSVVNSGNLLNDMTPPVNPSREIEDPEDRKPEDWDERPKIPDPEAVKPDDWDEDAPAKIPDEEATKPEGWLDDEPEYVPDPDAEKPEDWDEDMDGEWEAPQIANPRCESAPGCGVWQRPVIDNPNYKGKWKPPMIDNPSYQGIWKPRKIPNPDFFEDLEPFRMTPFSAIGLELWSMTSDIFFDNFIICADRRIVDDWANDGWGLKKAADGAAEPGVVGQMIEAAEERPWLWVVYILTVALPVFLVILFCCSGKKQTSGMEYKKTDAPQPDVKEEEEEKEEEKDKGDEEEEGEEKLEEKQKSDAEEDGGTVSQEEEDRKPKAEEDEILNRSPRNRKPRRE"}, "[4]": {"biological_target": "T4, HeLa cell extract proteins (Homo sapiens, UniProt Q9BXR0)", "T4 construct": "endogenous in cells; host or cells: HeLa cell extract", "T4 sequence (Q9BXR0 1-403)": "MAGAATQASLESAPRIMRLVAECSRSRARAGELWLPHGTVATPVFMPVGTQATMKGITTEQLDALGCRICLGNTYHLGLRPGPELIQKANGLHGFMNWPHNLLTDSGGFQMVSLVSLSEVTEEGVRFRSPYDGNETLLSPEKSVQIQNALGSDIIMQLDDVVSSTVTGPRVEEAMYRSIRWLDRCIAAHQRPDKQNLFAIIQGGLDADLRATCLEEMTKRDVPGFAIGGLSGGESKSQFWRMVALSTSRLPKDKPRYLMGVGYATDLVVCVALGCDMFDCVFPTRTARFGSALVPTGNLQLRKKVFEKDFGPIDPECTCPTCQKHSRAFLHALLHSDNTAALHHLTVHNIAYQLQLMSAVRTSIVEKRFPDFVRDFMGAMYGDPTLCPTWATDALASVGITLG"}, "[5]": {"biological_target": "T5, HeLa cell extract proteins (Homo sapiens, UniProt Q53G59)", "T5 construct": "endogenous in cells; host or cells: HeLa cell extract", "T5 sequence (Q53G59 1-568)": "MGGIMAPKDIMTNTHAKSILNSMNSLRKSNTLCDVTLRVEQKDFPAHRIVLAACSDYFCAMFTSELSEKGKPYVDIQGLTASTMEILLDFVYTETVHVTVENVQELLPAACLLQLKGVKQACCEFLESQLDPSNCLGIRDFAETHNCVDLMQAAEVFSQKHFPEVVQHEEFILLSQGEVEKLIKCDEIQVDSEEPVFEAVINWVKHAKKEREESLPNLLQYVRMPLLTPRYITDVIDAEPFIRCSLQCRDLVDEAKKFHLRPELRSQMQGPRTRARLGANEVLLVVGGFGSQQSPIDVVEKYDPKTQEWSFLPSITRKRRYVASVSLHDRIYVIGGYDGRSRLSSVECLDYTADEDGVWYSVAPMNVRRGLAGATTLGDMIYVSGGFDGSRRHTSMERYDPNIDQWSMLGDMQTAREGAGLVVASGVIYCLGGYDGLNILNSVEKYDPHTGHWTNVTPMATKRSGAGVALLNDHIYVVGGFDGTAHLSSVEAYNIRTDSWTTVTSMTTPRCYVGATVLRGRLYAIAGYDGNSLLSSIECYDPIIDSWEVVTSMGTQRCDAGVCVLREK"}, "[6]": {"biological_target": "T6, HeLa cell extract proteins (Homo sapiens, UniProt Q96AG4)", "T6 construct": "endogenous in cells; host or cells: HeLa cell extract", "T6 sequence (Q96AG4 1-307)": "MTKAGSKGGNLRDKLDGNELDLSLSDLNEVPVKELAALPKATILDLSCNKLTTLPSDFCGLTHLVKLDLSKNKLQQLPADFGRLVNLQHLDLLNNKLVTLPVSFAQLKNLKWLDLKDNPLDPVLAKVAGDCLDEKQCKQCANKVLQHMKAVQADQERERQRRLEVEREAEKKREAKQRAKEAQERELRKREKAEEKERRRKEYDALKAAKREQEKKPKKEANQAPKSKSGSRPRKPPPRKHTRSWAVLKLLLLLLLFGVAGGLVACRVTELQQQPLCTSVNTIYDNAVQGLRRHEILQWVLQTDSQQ"}, "[7]": {"conditions": "HeLa, protein DJ-1 (PROTEIN DJ-1.)"}, "[8]": {"conditions": "HeLa, protein KLHL12 (KELCH-LIKE PROTEIN 12)"}}, "note": "Read-outs that look alike come from different tables or passages of the source.", "data": [{"smiles": "CCCCCCOc1cccc(Cc2cnc(N)nc2N)c1", "note": "[compound 2]", "values": [{"measurement": "fold changes relative to vehicle control", "setting": "[1]; HeLa, protein IMMT", "value": 1.14}, {"measurement": "fold changes relative to vehicle control", "setting": "[2]; [7]", "value": 2.24, "unit": "fold"}, {"measurement": "fold changes relative to vehicle control", "setting": "[3]; protein CANX, HeLa", "value": 2.38}, {"measurement": "fold changes relative to vehicle control", "setting": "[4]; protein QTRT1, HeLa", "value": 1.05}, {"measurement": "fold changes relative to vehicle control", "setting": "[5]; protein KLHL12, HeLa", "value": 1.3}, {"measurement": "fold changes relative to vehicle control", "setting": "[6]; protein LRRC59, HeLa", "value": 1.54}]}, {"smiles": "NCCOCCOCC(=O)Nc1nc2ncc(CNc3ccc(C(=O)NC(CCC(=O)O)C(=O)O)cc3)nc2c(=O)[nH]1", "note": "(stereo not drawn) [compound 6]", "values": [{"measurement": "fold changes relative to vehicle control", "setting": "[1]; HeLa, captured protein IMMT", "value": 1.03}, {"measurement": "fold changes relative to vehicle control", "setting": "[2]; HeLa, captured protein DJ-1", "value": 1.36}, {"measurement": "fold changes relative to vehicle control", "setting": "[3]; HeLa, captured protein CANX", "value": 1.35}, {"measurement": "fold changes relative to vehicle control", "setting": "[4]; protein QTRT1, HeLa", "value": 0.28}, {"measurement": "fold changes relative to vehicle control", "setting": "[5]; [8]", "value": 1.05}, {"measurement": "fold changes relative to vehicle control", "setting": "[6]; HeLa, protein LRRC59", "value": 1.13}]}, {"smiles": "CCCCCCOc1ccc(Cc2cnc(N)nc2N)cc1", "note": "[compound 1]", "values": [{"measurement": "fold changes relative to vehicle control", "setting": "[1]; HeLa, protein IMMT", "value": 0.96}, {"measurement": "fold changes relative to vehicle control", "setting": "[2]; [7]", "value": 1.34, "unit": "fold"}, {"measurement": "fold changes relative to vehicle control", "setting": "[3]; protein CANX, HeLa", "value": 1.3}, {"measurement": "fold changes relative to vehicle control", "setting": "[4]; protein QTRT1, HeLa", "value": 0.51}, {"measurement": "fold changes relative to vehicle control", "setting": "[5]; protein KLHL12, HeLa", "value": 1.15}, {"measurement": "fold changes relative to vehicle control", "setting": "[6]; protein LRRC59, HeLa", "value": 1.14}]}, {"smiles": "Nc1nc2c(c(=O)[nH]1)N(C=O)C(CNc1ccc(C(=O)N[C@@H](CCC(=O)O)C(=O)O)cc1)CN2", "note": "(stereo partly drawn) [LEU, leucovorin]", "values": [{"measurement": "fold changes relative to vehicle control", "setting": "[1]; HeLa, captured protein IMMT", "value": 0.97}, {"measurement": "fold changes relative to vehicle control", "setting": "[2]; HeLa, captured protein DJ-1", "value": 1.1}, {"measurement": "fold changes relative to vehicle control", "setting": "[3]; HeLa, captured protein CANX", "value": 1.09}, {"measurement": "fold changes relative to vehicle control", "setting": "[4]; protein QTRT1, HeLa", "value": 0.96}, {"measurement": "fold changes relative to vehicle control", "setting": "[5]; [8]", "value": 1.36}, {"measurement": "fold changes relative to vehicle control", "setting": "[6]; HeLa, protein LRRC59", "value": 0.83}]}, {"smiles": "NCCCNc1ccc(C(=O)NC(CCC(=O)O)C(=O)O)cc1", "note": "(stereo not drawn) [compound 7]", "values": [{"measurement": "fold changes relative to vehicle control", "setting": "[1]; HeLa, captured protein IMMT", "value": 1.09}, {"measurement": "fold changes relative to vehicle control", "setting": "[2]; HeLa, captured protein DJ-1", "value": 1.06}, {"measurement": "fold changes relative to vehicle control", "setting": "[3]; HeLa, captured protein CANX", "value": 1.06}, {"measurement": "fold changes relative to vehicle control", "setting": "[4]; protein QTRT1, HeLa", "value": 0.98}, {"measurement": "fold changes relative to vehicle control", "setting": "[5]; [8]", "value": 1.31}, {"measurement": "fold changes relative to vehicle control", "setting": "[6]; HeLa, protein LRRC59", "value": 0.87}]}, {"smiles": "Nc1nc2[nH]cc(CCc3ccc(C(=O)N[C@@H](CCC(=O)O)C(=O)O)cc3)c2c(=O)[nH]1", "note": "[PTX, pemetrexed]", "values": [{"measurement": "fold changes relative to vehicle control", "setting": "[1]", "value": 1.01}, {"measurement": "fold changes relative to vehicle control", "setting": "[2]", "value": 1.28}, {"measurement": "fold changes relative to vehicle control", "setting": "[3]", "value": 1.25}, {"measurement": "fold changes relative to vehicle control", "setting": "[4]", "value": 0.84}, {"measurement": "fold changes relative to vehicle control", "setting": "[5]", "value": 1.07}, {"measurement": "fold changes relative to vehicle control", "setting": "[6]", "value": 0.83}]}, {"smiles": "Nc1nc2cccc(-c3ccccc3)c2n1Cc1ccc(Cl)c(Cl)c1", "note": "[compound 3]", "values": [{"measurement": "fold changes relative to vehicle control", "setting": "[1]; HeLa, protein IMMT", "value": 1.05}, {"measurement": "fold changes relative to vehicle control", "setting": "[2]; [7]", "value": 0.85, "unit": "fold"}, {"measurement": "fold changes relative to vehicle control", "setting": "[3]; protein CANX, HeLa", "value": 0.92}, {"measurement": "fold changes relative to vehicle control", "setting": "[4]; protein QTRT1, HeLa", "value": 1.03}, {"measurement": "fold changes relative to vehicle control", "setting": "[5]; protein KLHL12, HeLa", "value": 0.97}, {"measurement": "fold changes relative to vehicle control", "setting": "[6]; protein LRRC59, HeLa", "value": 0.98}]}]}
